From patent US12528796B2, “Modulators of RAS GTPase” (Tosk, Inc., priority 2019, dated 2026)

system: SW620 cells (KRAS-G12V); assay: Cell proliferation / cytotoxicity assay (CellTiter-Glo 2.0); assay type: cell-based; settings: Homo sapiens, SW-620, 72 h, SW620 cell line (KRAS-G12V), 72 hours incubation, luminescence (CellTiter-Glo 2.0); read-out: 5W620 IC50
Procedure: Compounds are assayed for inhibition of cell proliferation and killing cancer cells. Cytotoxicity assays are conducted according to the following general procedure. SW620 cells (ATCC CCL-227) are maintained in DMEM Low Glucose (Corning 10-014-CV) media supplemented with 10% fetal bovine serum and 1% PenStrep and grown at 37° C. in 5% CO2. Cells are plated into 96 well flat bottom plates (2 million/plate, ˜20,000/well, 200 μL media/well). The cells are allowed to settle and adhere to the plate bottom overnight. Compounds are diluted in media from a 10 mM stock solution starting at 50 μM, using 2-fold dilutions, in a column in a 96-well plate. Media is removed from the plate containing cells and replaced with media containing diluted compounds. Plates are incubated 72 hours at 37° C. in 5% CO2. Plates were allowed to come to room temperature and 100 μL CellTiter-Glo 2.0 reagent (Promega, G924C) is added at room temperature. Plates are shaken for 2 minutes, then allowed to stand for 15 minutes. Luminescence is read with FLx800 (BioTek Instruments). Data is plotted with GraphPad Prizm 8.0.
Dose response curves for the cytotoxicity of exemplary compounds against SW620 (KRAS-G12V) and MIA PaCa-2 (KRAS-G12C) cell lines are shown in FIG. 1A-1J.

Row | SMILES | IC50
1 | Cc1nc(NC2CCN(C(=O)c3ccc(Cl)cc3)CC2)nc2ccc(-c3cccc4c3OCCO4)cc12 [Compound 2, (4-chlorophenyl)(4-((6-(2,3-dihydrobenzo[b][1,4]dioxin-5-yl)-4-methylquinazolin-2-yl)amino)piperidin-1-yl)methanone] | 5 to 10 µM
2 | Cc1nc(NC2CCN(Cc3ccc(Cl)cc3)CC2)nc2ccc(-c3cccc4c3OCCO4)cc12 [Compound 3, N-(1-(4-chlorobenzyl)piperidin-4-yl)-6-(2,3-dihydrobenzo[b][1,4]dioxin-5-yl)-4-methylquinazolin-2-amine] | < 5 µM
3 | Cc1nc(NC2CCN(Cc3ccc(Cl)cc3)CC2)nc2ccc(-c3cccc4c3CCNC4)cc12 [Compound 4, N-(1-(4-chlorobenzyl)piperidin-4-yl)-4-methyl-6-(1,2,3,4-tetrahydroisoquinolin-5-yl)quinazolin-2-amine] | 5 to 10 µM
4 | Cc1nc(NC2CCN(C(=O)c3ccc(Cl)cc3)CC2)nc2ccc(-c3cccc4c3CCNC4)cc12 [Compound 7] | 5 to 10 µM
5 | CC(=O)N1CCc2c(cccc2-c2ccc3nc(NC4CCN(C(=O)c5ccc(Cl)cc5)CC4)nc(C)c3c2)C1 [Compound 8] | 5 to 10 µM
6 | Cc1nc(N2CCC(N3Cc4ccccc4CC3=O)C2)nc2ccc(-c3cccc4c3OCCO4)cc12 (stereo not drawn) [Compound 9] | 5 to 10 µM
7 | Cc1nc(N2CC[C@H](N3Cc4ccccc4CC3=O)C2)nc2ccc(-c3cccc4c3OCCO4)cc12 [Compound 10] | 5 to 10 µM
8 | Cc1nc(NC2CCN(C(=O)c3ccc(Cl)cc3)[C@@H](C)C2)nc2ccc(-c3cccc4c3OCCO4)cc12 (stereo partly drawn) [Compound 11] | 5 to 10 µM
9 | Cc1nc(N[C@@H]2CCN(C(=O)c3ccc(Cl)cc3)[C@H](C)C2)nc2ccc(-c3cccc4c3OCCO4)cc12 [Compound 12] | 5 to 10 µM
10 | Cc1ncccc1C(=O)N1CCC(Nc2nc(C)c3cc(-c4cccc5c4OCCO5)ccc3n2)CC1 [Compound 13] | < 5 µM
11 | Cc1nc(NC2CCN(C(=O)c3ccc(F)cc3)CC2)nc2ccc(-c3cccc4c3OCCO4)cc12 [Compound 14] | < 5 µM
12 | Cc1nc(NC2CCN(C(=O)c3cccc(Cl)c3)CC2)nc2ccc(-c3cccc4c3OCCO4)cc12 [Compound 15] | 5 to 10 µM
13 | Cc1nc(NC2CCN(C(=O)c3ccccc3Cl)CC2)nc2ccc(-c3cccc4c3OCCO4)cc12 [Compound 16] | < 5 µM
14 | COc1ccccc1C(=O)N1CCC(Nc2nc(C)c3cc(-c4cccc5c4OCCO5)ccc3n2)CC1 [Compound 17] | 5 to 10 µM
15 | Cc1nc(NC2CCN(C(=O)c3ccc(Cl)cc3)CC2)nc2ccc(-c3cccc4[nH]nc(C)c34)cc12 [Compound 18] | < 5 µM
16 | Cc1ccc2ccc(F)c(-c3ccc4nc(NC5CCN(Cc6ccc(F)cc6)CC5)nc(C)c4c3)c2n1 [Compound 19] | 5 to 10 µM
17 | COc1c(Cl)cc(F)cc1-c1ccc2nc(NC3CCN(Cc4ccc(Cl)cc4)CC3)nc(C)c2c1 [Compound 20] | < 5 µM
18 | Cc1nc(NC2CCN(Cc3ccc(Cl)cc3)CC2)nc2ccc(-c3cccc4c3CCCC4)cc12 [Compound 21] | < 5 µM
19 | Cc1nc(NC2CCN(Cc3ccc(Cl)cc3)CC2)nc2ccc(-c3ccnc4ccc(Cl)cc34)cc12 [Compound 22] | 5 to 10 µM
20 | Cc1nc(NC2CCN(C(=O)c3ccc(Cl)cc3)CC2)nc2ccc(-c3cccc4c3CCCC4)cc12 [Compound 23] | < 5 µM
21 | Cc1ccc2[nH]ncc2c1-c1ccc2nc(NC3CCN(Cc4ccc(Cl)cc4)CC3)nc(C)c2c1 [Compound 24] | < 5 µM

Row | SMILES | IC50
22 | Cc1nc(NC2CCN(C(=O)c3cccc(Cl)c3)[C@H](C)C2)nc2ccc(-c3cccc4c3OCCO4)cc12 (stereo partly drawn) [Compound 25] | 5 to 10 µM
23 | COc1ccccc1C(=O)N1CCC(Nc2nc(C)c3cc(-c4cccc5c4OCCO5)ccc3n2)C[C@H]1C (stereo partly drawn) [Compound 26] | 5 to 10 µM
24 | Cc1nc(NC2CCN(C(=O)c3ccccc3Cl)[C@H](C)C2)nc2ccc(-c3cccc4c3OCCO4)cc12 (stereo partly drawn) [Compound 27] | < 5 µM
25 | COc1c(Cl)cccc1-c1ccc2nc(NC3CCN(Cc4ccc(Cl)cc4)CC3)nc(C)c2c1 [Compound 28] | < 5 µM
26 | Cc1cccc(-c2ccc3nc(NC4CCN(Cc5ccc(Cl)cc5)CC4)nc(C)c3c2)c1C [Compound 29] | < 5 µM
27 | Cc1nc(NC2CCN(Cc3ccc(Cl)cc3)CC2)nc2ccc(-c3cc(F)cc4c3OC(C)(C)C(=O)N4)cc12 [Compound 30] | < 5 µM
28 | Cc1nc(NC2CCN(Cc3ccc(Cl)cc3)CC2)ncc1-c1cccc2c1CCCC2 [Compound 31] | < 5 µM
29 | Cc1nc(NC2CCN(Cc3ccc(Cl)cc3)CC2)nc2ccc(-c3cccc4c3C(=O)CCC4)cc12 [Compound 32] | < 5 µM
30 | Cc1nc(NC2CCN(Cc3ccc(Cl)cc3)CC2)nc2ccc(-c3cccc4c3/C(=N/O)CCC4)cc12 [Compound 33] | < 5 µM
31 | Cc1nc(NC(C)c2cccnc2)nc2ccc(-c3cccc4c3CCCC4)cc12 (stereo not drawn) [Compound 34] | 5 to 10 µM
32 | Cc1nc(NC2CCN(C(=O)c3ccccc3Cl)CC2)nc2ccc(-c3cccc4c3CCCC4)cc12 [Compound 36] | 5 to 10 µM
33 | Cc1nc(N[C@@H]2CC[C@@H](Cc3ccc(Cl)cc3)NC2)nc2ccc(-c3cccc4c3CCCC4)cc12 [Compound 37] | 5 to 10 µM
34 | Cc1nc(NC2CCN(C(=O)c3ccc(Cl)cc3)CC2)ncc1-c1ccccc1C(C)(O)c1ccccc1 (stereo not drawn) [Compound 38] | 5 to 10 µM
35 | COc1cccc(-c2ccc3nc(NC4CCN(Cc5ccc(Cl)cc5)CC4)nc(C)c3c2)c1OC [Compound 39] | < 5 µM
36 | Cc1nc(NC2CCN(Cc3ccc(Cl)cc3)CC2)nc2ccc(-c3cccc4c3OCC3(CC3)CO4)cc12 [Compound 41] | 5 to 10 µM
37 | Cc1nc(NC2CCN(Cc3ccc(Cl)cc3)CC2)nc2ccc(-c3ccnc4[nH]ccc34)cc12 [Compound 42] | < 5 µM
38 | COc1c(Cl)cccc1-c1ccc2nc(NC3CCN(C(=O)c4ccccc4Cl)CC3)nc(C)c2c1 [Compound 43] | 5 to 10 µM
39 | Cc1nc(NC2CCN(Cc3ccc(Cl)cc3)CC2)nc2ccc(-c3ccncc3C#N)cc12 [Compound 44] | 5 to 10 µM
40 | Cc1nc(NC2CCN(Cc3ccc(Cl)cc3)CC2)nc2ccc(-c3ccncc3C(N)=O)cc12 [Compound 45] | < 5 µM
41 | Cc1nc(NC2CCN(Cc3ccc(Cl)cc3)CC2)nc2ccc(-c3ccnc(N4CCOCC4)c3F)cc12 [Compound 46] | 5 to 10 µM
42 | Cc1nc(NC2CCN(Cc3ccc(Cl)cc3)CC2)nc2ccc(-c3ccnc(N4CCCCC4)c3F)cc12 [Compound 47] | < 5 µM

Row | SMILES | IC50
43 | COc1cccc(-c2ccc3nc(NC4CCN(Cc5ccc(Cl)cc5)CC4)nc(C)c3c2)n1 [Compound 48] | 5 to 10 µM
44 | COc1cnccc1-c1ccc2nc(NC3CCN(Cc4ccc(Cl)cc4)CC3)nc(C)c2c1 [Compound 49] | < 5 µM
45 | COc1cc(-c2ccc3nc(NC4CCN(Cc5ccc(Cl)cc5)CC4)nc(C)c3c2)ccn1 [Compound 50] | 5 to 10 µM
46 | COc1cc(-c2ccc3nc(NC4CCN(Cc5ccc(Cl)cc5)CC4)nc(C)c3c2)c(Cl)cn1 [Compound 51] | < 5 µM
47 | Cc1nccc(-c2ccc3nc(NC4CCN(Cc5ccc(Cl)cc5)CC4)nc(C)c3c2)c1Cl [Compound 52] | < 5 µM
48 | COc1nccc(-c2ccc3nc(NC4CCN(Cc5ccc(Cl)cc5)CC4)nc(C)c3c2)c1Cl [Compound 53] | < 5 µM
49 | Cc1ncccc1-c1ccc2nc(NC3CCN(Cc4ccc(Cl)cc4)CC3)nc(C)c2c1 [Compound 54] | < 5 µM
50 | COc1ncccc1-c1ccc2nc(NC3CCN(Cc4ccc(Cl)cc4)CC3)nc(C)c2c1 [Compound 55] | < 5 µM
51 | Cc1nc(NC2CCN(Cc3ccc(Cl)cc3)CC2)nc2ccc(-c3cccnc3OC(C)C)cc12 [Compound 56] | < 5 µM
52 | Cc1nc(NC2CCN(Cc3ccc(Cl)cc3)CC2)nc2ccc(-c3cccnc3OCC(C)C)cc12 [Compound 57] | 5 to 10 µM
53 | Cc1nc(NC2CCN(Cc3ccc(Cl)cc3)CC2)nc2ccc(-c3cncc4[nH]ccc34)cc12 [Compound 58] | 5 to 10 µM
54 | Cc1nc(NC2CCN(Cc3ccc(Cl)cc3)CC2)nc2ccc(-c3cncc4ccccc34)cc12 [Compound 59] | 5 to 10 µM
55 | Cc1ccc2ccc(F)c(-c3ccc4nc(NC5CCNCC5)nc(C)c4c3)c2n1 [Compound 60] | < 5 µM
56 | Cc1ccc2ccc(F)c(-c3ccc4nc(NC5CCN(C(=O)c6ccccc6Cl)CC5)nc(C)c4c3)c2n1 [Compound 61] | 5 to 10 µM
57 | Cc1nc(NC2CCN(Cc3ccc(Cl)cc3)CC2)nc2ccc(-c3cccc4c3NC(=O)CO4)cc12 [Compound 62] | < 5 µM
58 | Cc1nc(NC2CCN(Cc3ccc(Cl)cc3)CC2)nc2ccc(-c3cccc4c3C(=O)CCO4)cc12 [Compound 63] | < 5 µM
59 | Cc1nc(NC2CCN(Cc3ccc(Cl)cc3)CC2)nc2ccc(-c3cccc4c3CC(=O)CO4)cc12 [Compound 64] | < 5 µM
60 | Cc1nc(NC2CCN(Cc3ccc(Cl)cc3)CC2)nc2ccc(-c3cccc4c3NC(=O)CC4)cc12 [Compound 65] | < 5 µM
61 | Cc1ncccc1-c1ccc2nc(NC3CCN(C(=O)c4ccc(Cl)cc4)CC3)nc(C)c2c1 [Compound 66] | 5 to 10 µM
62 | Cc1nc(N[C@H]2CC[C@@H](NC3Cc4cccc(Cl)c4C3)CC2)nc2ccc(Br)cc12 (stereo partly drawn) [Compound 67] | 5 to 10 µM

same assay, conditions: SW620 cell line (KRAS-G12V), 72 hours incubation, luminescence (CellTiter-Glo 2.0); read-out: 5W620 IC50

Row | SMILES | IC50
63 | Cc1nc(NC2CCN(C(=O)c3ccc(Cl)cc3)CC2)nc2ccc(-c3cccc4c3CCCC4)cc12 [Compound 35] | 5 to 10 µM
